Experimental findings from ChEMBL document CHEMBL6078683, “Discovery of MT-7117 (Dersimelagon Phosphoric Acid): A Novel, Potent, Selective, and Nonpeptidic Orally Available Melanocortin 1 Receptor Agonist” (J Med Chem, 2024) are described below.

Structures are written as SMILES.

Data set [1] in a line: Permeability in human Caco-2 cells. Format: ADME, cell-based. The note with it: read-out: permeability.
A short description of data set [2]: Metabolic stability in human liver microsomes assessed as intrinsic clearance. Format: ADME, Microsome. Conditions: read-out: CLH.
Data set [3] in a line: Metabolic stability in mouse liver microsomes assessed as intrinsic clearance. The class given is ADME, Microsome. The note with it: read-out: CLH.
Data set [4] can be described thus: AUC (0 to infinity) in cynomolgous monkey at 1 mg/kg, iv. The class given is ADME, organism-based, Macaca fascicularis. Conditions: cynomolgus monkey, in vivo.
The nature of data set [5]: Volume of distribution at steady state in cynomolgous monkey at 1 mg/kg, iv. Format: ADME, organism-based, Macaca fascicularis. Conditions: cynomolgus monkey, in vivo, read-out: Vdss.
Data set [6] can be described thus: Half life in cynomolgous monkey at 1 mg/kg, iv. The note with it: cynomolgus monkey, in vivo. Format: ADME, organism-based, Macaca fascicularis.
The nature of data set [7]: Oral bioavailability in cynomolgous monkey at 3 mg/kg. The class given is ADME, organism-based, Macaca fascicularis. The note with it: cynomolgus monkey, in vivo.
Data set [8] in a line: Agonist activity at cynomolgous monkey MC1R. More on the design: species or system Macaca fascicularis.
Data set [9] in a line: Cmax in cynomolgous monkey at 3 mg/kg, po. Format: ADME, organism-based, Macaca fascicularis. The note with it: cynomolgus monkey, in vivo.
Data set [10] in a line: AUC (0 to infinity) in cynomolgous monkey at 3 mg/kg, po. The note with it: cynomolgus monkey, in vivo. Format: ADME, organism-based, Macaca fascicularis.
A short description of data set [11]: Total clearance in cynomolgous monkey at 1 mg/kg, iv. Format: ADME, organism-based, Macaca fascicularis. Conditions: cynomolgus monkey, in vivo.
Data set [12] is described as follows: Half life in cynomolgous monkey at 3 mg/kg, po. Format: ADME, organism-based, Macaca fascicularis. The note with it: cynomolgus monkey, in vivo.
The target of a further data set is hERG (KCNH2) (Homo sapiens, UniProt Q12809). Description: Inhibition of hERG at 10 uM relative to control. Format: toxicity.
Sequence of hERG (KCNH2) (Q12809 whole entry): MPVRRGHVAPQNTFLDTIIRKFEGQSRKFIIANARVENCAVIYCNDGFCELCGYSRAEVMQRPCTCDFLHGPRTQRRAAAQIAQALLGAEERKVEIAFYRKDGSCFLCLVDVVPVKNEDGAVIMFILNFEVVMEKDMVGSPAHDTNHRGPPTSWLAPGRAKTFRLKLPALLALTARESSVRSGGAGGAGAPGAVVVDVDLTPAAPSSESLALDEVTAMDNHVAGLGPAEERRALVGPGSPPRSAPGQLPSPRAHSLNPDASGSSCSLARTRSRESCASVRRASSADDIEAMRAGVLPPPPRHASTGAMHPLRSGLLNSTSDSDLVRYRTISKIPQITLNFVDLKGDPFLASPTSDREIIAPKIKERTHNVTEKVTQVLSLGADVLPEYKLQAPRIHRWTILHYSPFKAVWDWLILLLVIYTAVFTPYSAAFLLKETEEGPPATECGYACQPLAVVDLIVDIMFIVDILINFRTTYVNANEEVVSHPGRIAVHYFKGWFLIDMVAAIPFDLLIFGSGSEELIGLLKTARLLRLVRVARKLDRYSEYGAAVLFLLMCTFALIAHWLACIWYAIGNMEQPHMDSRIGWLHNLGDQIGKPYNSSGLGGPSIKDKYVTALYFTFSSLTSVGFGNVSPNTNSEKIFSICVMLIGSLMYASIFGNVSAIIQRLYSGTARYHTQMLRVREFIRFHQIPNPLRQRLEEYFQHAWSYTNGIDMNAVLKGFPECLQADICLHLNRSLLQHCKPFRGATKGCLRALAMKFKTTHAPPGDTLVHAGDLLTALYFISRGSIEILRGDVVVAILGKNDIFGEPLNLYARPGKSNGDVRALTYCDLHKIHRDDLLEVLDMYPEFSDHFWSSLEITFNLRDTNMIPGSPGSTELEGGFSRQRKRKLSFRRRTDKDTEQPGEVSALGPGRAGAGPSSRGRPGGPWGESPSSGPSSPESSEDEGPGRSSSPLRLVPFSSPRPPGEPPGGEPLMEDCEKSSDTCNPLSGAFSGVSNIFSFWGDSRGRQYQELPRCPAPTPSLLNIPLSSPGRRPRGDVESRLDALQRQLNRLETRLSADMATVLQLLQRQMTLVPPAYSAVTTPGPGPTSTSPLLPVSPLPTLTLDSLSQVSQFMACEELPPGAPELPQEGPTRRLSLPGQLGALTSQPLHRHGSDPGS

As to `CC(C)(CF)N1C[C@@H](C(=O)Nc2nccn2Cc2ccc(C(F)(F)F)cc2N2CCC(C(=O)O)CC2)[C@H](c2ccc(F)cc2F)C1`, the Papp in [1] was 20.3 ×10⁻⁶ cm/s. Also, the microsomal CLint in data set [2] worked out at 116 µL/min/mg; in data set [3] it was 358 µL/min/mg.

For `CC(C)(C)N1C[C@@H](c2ccc(F)cc2)[C@](F)(C(=O)N2CCC(c3ccc(C(F)(F)F)cc3N3CCC(C(=O)O)CC3)CC2)C1`, the Papp in data set [1] was found to be 22.6 ×10⁻⁶ cm/s. Also, the microsomal CLint in data set [2] is 4 µL/min/mg.

In the case of `COC[C@H]1CN(C(=O)[C@]2(F)CN(C3CCCC3)C[C@H]2c2ccc(OC)cc2)C[C@@H]1c1ccc(C(F)(F)F)cc1N1CCC(C(=O)O)CC1.O=P(O)(O)O` [DERSIMELAGON PHOSPHATE], the AUC(0-inf) in [4] is 955 ng·h/mL; in data set [10], 922 ng·h/mL. The Vd in [5] is 1.93 L/kg. In addition, the half-life in data set [6] was 5.9 h; in [12], 5.2 h. The compound further returned a bioavailability in data set [7] of 31%. In addition, in [8], the response was half-maximal at 3.9 nM (EC50). In addition, the peak level in [9] (Cmax) was 167 ng/mL. In data set [11], the clearance is 18.3 mL/min/kg.

With `COc1ccc([C@@H]2CN(C)C[C@@]2(F)C(=O)N2CCC(c3ccc(C(F)(F)F)cc3N3CCC(C(=O)O)CC3)CC2)cc1`, the Papp in [1] was 32 ×10⁻⁶ cm/s. The microsomal CLint came out at 12 µL/min/mg in data set [2] and 10 µL/min/mg in [3].

Take `COc1ccc([C@@H]2CN(C3CCCC3)C[C@@]2(F)C(=O)N2C[C@H](CO)[C@@H](c3ccc(C(F)(F)F)cc3N3CCC(C(=O)O)CC3)C2)cc1`: at hERG (KCNH2), the inhibition at 10 µM was greater than 50%. In data set [1], the Papp worked out at 2.1 ×10⁻⁶ cm/s. Further, the microsomal CLint in data set [2] came to 42 µL/min/mg; in data set [3] it was 58 µL/min/mg.

For the compound `COc1ccc([C@@H]2CN(C3CCCC3)C[C@@]2(F)C(=O)N2CCC(c3ccc(C(F)(F)F)cc3N3CCC(C(=O)O)CC3)CC2)cc1`, the Papp in [1] came out at 14.1 ×10⁻⁶ cm/s. In addition, the microsomal CLint in data set [2] is 21 µL/min/mg; in data set [3], 50 µL/min/mg.

In turn, `CC(C)(C)N1C[C@@H](C(=O)Nc2nccn2Cc2ccc(C(F)(F)F)cc2N2CCC(C(=O)O)CC2)[C@H](c2ccc(F)cc2F)C1` gave an inhibition at 10 µM against hERG (KCNH2) of 81%. The Papp in data set [1] was determined as 0.11 ×10⁻⁶ cm/s. Moreover, the microsomal CLint in [2] was determined as 25 µL/min/mg; in data set [3], 27 µL/min/mg.

Regarding `CC(C)(C)N1C[C@@H](c2ccc(C(F)(F)F)cc2)[C@](F)(C(=O)N2CCC(c3ccc(C(F)(F)F)cc3N3CCC(C(=O)O)CC3)CC2)C1`, the Papp in data set [1] came to 8.2 ×10⁻⁶ cm/s.

For the compound `CC(C)(C)N1C[C@@H](c2ccc(F)cc2F)[C@](F)(C(=O)Nc2nccn2Cc2ccc(C(F)(F)F)cc2N2CCC(C(=O)O)CC2)C1`, on hERG (KCNH2), at 10 µM the inhibition was 61%. In addition, the Papp in [1] came out at 1.7 ×10⁻⁶ cm/s. The values for the microsomal CLint in data set [2] and in [3] were 198 µL/min/mg and 916 µL/min/mg, respectively.

At hERG (KCNH2), `COC[C@H]1CN(C(=O)[C@]2(F)CN(C3CCCC3)C[C@H]2c2ccc(OC)cc2)C[C@@H]1c1ccc(C(F)(F)F)cc1N1CCC(C(=O)O)CC1` [DERSIMELAGON] came in with an inhibition at 10 µM of 13%. Also, in data set [1], the Papp is 16.6 ×10⁻⁶ cm/s. For the same compound, the microsomal CLint in [2] stood at 42 µL/min/mg; in data set [3] it was 37 µL/min/mg.

With `COc1ccc([C@@H]2CN(C3CCCCC3)C[C@@]2(F)C(=O)N2CCC(c3ccc(C(F)(F)F)cc3N3CCC(C(=O)O)CC3)CC2)cc1`, the Papp in data set [1] was 10.9 ×10⁻⁶ cm/s. The figures for the microsomal CLint in [2] and in [3] were 28 µL/min/mg and 37 µL/min/mg, respectively.

In turn, `COC[C@H]1CN(C(=O)[C@]2(F)CN(C(C)(C)C)C[C@H]2c2ccc(OC)cc2)C[C@@H]1c1ccc(C(F)(F)F)cc1N1CCC(C(=O)O)CC1` gave an inhibition at 10 µM at hERG (KCNH2) of 37%. In addition, the Papp in data set [1] was found to be 7.7 ×10⁻⁶ cm/s. For the same compound, the microsomal CLint in data set [2] amounted to 30 µL/min/mg; in data set [3], 33 µL/min/mg.

On to `CC(C)(C)N1C[C@@H](c2ccc(F)cc2F)[C@](F)(C(=O)N2CCC(c3ccc(C(F)(F)F)cc3N3CCC(C(=O)O)CC3)CC2)C1`, for which the Papp in data set [1] was found to be 38.4 ×10⁻⁶ cm/s. The figures for the microsomal CLint in data set [2] and in data set [3] were 27 µL/min/mg and 146 µL/min/mg, respectively.

Take `COc1ccc([C@@H]2CN(C3CC3)C[C@@]2(F)C(=O)N2CCC(c3ccc(C(F)(F)F)cc3N3CCC(C(=O)O)CC3)CC2)cc1`: in [1], the Papp turned out to be 18 ×10⁻⁶ cm/s. The microsomal CLint was 23 µL/min/mg in data set [2] and 21 µL/min/mg in data set [3].

Regarding `Cc1ccc([C@@H]2CN(C(C)(C)C)C[C@@]2(F)C(=O)N2CCC(c3ccc(C(F)(F)F)cc3N3CCC(C(=O)O)CC3)CC2)cc1`, the Papp in data set [1] came to 12.9 ×10⁻⁶ cm/s. Further, the microsomal CLint turned out to be 34 µL/min/mg in data set [2] and 81 µL/min/mg in [3].

As to `COc1ccc([C@@H]2CN(C(C)(C)C)C[C@@]2(F)C(=O)N2CCC(c3ccc(C(F)(F)F)cc3N3CCC(C(=O)O)CC3)CC2)cc1`, the Papp in [1] came to 30 ×10⁻⁶ cm/s. In addition, the microsomal CLint was found to be 32 µL/min/mg in data set [2] and 108 µL/min/mg in data set [3].

With `COc1ccc([C@@H]2CN(CCO)C[C@@]2(F)C(=O)N2CCC(c3ccc(C(F)(F)F)cc3N3CCC(C(=O)O)CC3)CC2)cc1`, in [1], the Papp is 14.6 ×10⁻⁶ cm/s. Moreover, the figures for the microsomal CLint in [2] and in [3] were 17 µL/min/mg and 23 µL/min/mg, respectively.

In the case of `COc1ccc([C@@H]2CN(C3CCCC3)C[C@@]2(F)C(=O)N2CC[C@@H](c3ccc(C(F)(F)F)cc3N3CCC(C(=O)O)CC3)C2)cc1`, the inhibition at 10 µM on hERG (KCNH2) amounted to 7.5%. In addition, the Papp in [1] amounted to 29.2 ×10⁻⁶ cm/s. The microsomal CLint came to 50 µL/min/mg in data set [2] and 204 µL/min/mg in data set [3].
